# Data as given in patent EP0445948A2, “Prostaglandins for inhibiting cartilage damage” (G.D. Searle & Co., priority 1990, dated 1991).
# Key:
# Assay type in all cases: cell-based
# IL1-treated cartilage [1] = assay: Pig articular cartilage organ culture: retention of GAG (methylene blue dye technique)
# Method: (§1) A standard organ culture method was followed. Pieces of articular cartilage (4x1x1 mm) are cultured in DMEM and 5% fetal calf serum in an atmosphere of 5% CO₂ at 30°C. The culture medium was renewed every two days in an attempt to maintain the level of the compound undergoing evaluation. Integrity of the cartilage was determined by the retention of GAG using methylene blue dye technique, results were expressed as percentage remaining in the tissue at the end of the experiment. The synthetic activity of the chondrocytes was measured by the incorporation of^ 35SO₄ into GAG. In some of the evaluations incorporation of 3H-leucine into protein was measured as an index of cell viability.
# (§2) Human recombinant IL1 alpha at a concentration of 1 ng/ml (nanograms/milliliter). At this concentration it was responsible for 68% loss in GAG content over the 8 day period whereas the control with either misoprostol vehicle or misoprostol at 200 ng/ml only lost between 4 and 7%. The cartilage was incubated in the presence of IL1 and misoprostol at 50, 100 and 200 ng/ml. […] At 100 ng/ml the GAG loss is reduced to 34 percent.
# IL1-treated cartilage [2] = assay: Pig articular cartilage organ culture: incorporation of 35SO4 into GAG (synthetic activity of chondrocytes); conditions: (SEM)
# Method: as §1, §2
# articular cartilage = assay: Pig articular cartilage organ culture: incorporation of 3H-leucine into protein (index of cell viability); conditions: 0IL1 + Miso. 200ng/ml; (SEM)
# Method: as §1, §2
# [3] = tested on: human articular cartilage; assay: Effect of misoprostol on IL1-induced inhibition of GAG synthesis (35SO4 incorporation after CPC precipitation); conditions: for 35SO4 uptake into GAG: 4 days, (SEM)
# Method: The effect of misoprostol on the action of IL1 on human articular cartilage. This experiment was undertaken to determine the action of misoprostol on IL1 action on cartilage. A total of 160 replicates were performed. The study investigated the inhibition of synthesis of GAG by human articular cartilage over the IL1 concentration range 0.01 - 1 ng/ml. Misoprostol was investigated in the range of 0.1 to 100 ng/ml.
# Cartilage from a person was used in this experiment. The experimental period was kept to 4 days with the medium being changed every 24 hours. The tissue was pulsed at 4 days with 5 µCi/ml ³⁵SO₄ in the conventional manner and its incorporation in GAG measured after CPC precipitation.
compound,measurement,setting,value
"CCCCC(C)(O)C/C=C/[C@H]1[C@H](O)CC(=O)[C@@H]1CCCCCCC(=O)OC (mixture of isomers) [misoprostol, (+/-) methyl 11α,16-dihydroxy-16-methyl-9-oxoprost-13E-en-1-oate]",% Retention of GAG in tissue,"IL1-treated cartilage [1]; 0IL1 + Miso. 200ng/ml, 8 day culture, (SEM)",95.6 (1.9) %
same,GAG loss,"IL1-treated cartilage [1]; IL1 1 ng/ml + misoprostol 100 ng/ml, 8 days",34%
same,inhibition of the IL1 effect (GAG loss),"IL1-treated cartilage [1]; IL1 + misoprostol at 50, 100 and 200 ng/ml",highly significant inhibition
same,direct effect on intact cartilage,IL1-treated cartilage [1]; misoprostol without IL1,no direct affect
same,Uptake of 35 SO4 into GAG,IL1-treated cartilage [2]; 0IL1 + Miso. 200ng/ml,29.6 (1.2) cpm/mg x 10^3
same,Uptake of 35 SO4 into GAG,IL1-treated cartilage [2]; IL1 + Miso. 200ng/ml,6.3 (0.8) cpm/mg x 10^3
same,Uptake of 3H Leucine,articular cartilage,70.9 (4.8) cpm/mg
same,protection against IL1-induced inhibition of GAG synthesis,"[3]; 0.01 ng/ml IL1 (50% inhibition level), misoprostol at 10 ng/ml and at 100 ng/ml",significant protection
same,protection against the action of 0.01 ng/ml hrIL1α,"[3]; 0.01 ng/ml hrIL1α, misoprostol 100 ng/ml",complete protection
same,protection against IL1-induced inhibition of GAG synthesis,"[3]; 0.1 ng/ml IL1, misoprostol 100 ng/ml",modest protective activity
same,protection against IL1-induced inhibition of GAG synthesis,"[3]; 0.1 ng/ml IL1, misoprostol below 100 ng/ml",ineffective
same,35SO4 uptake into GAG,"[3]; IL1 conc. 0.01 ng/ml, Misoprostol 0.1 ng/ml",3086 (306) cpm/mg
same,35SO4 uptake into GAG,"[3]; IL1 conc. 0.01 ng/ml, Misoprostol 1.0 ng/ml",2919 (244) cpm/mg
same,35SO4 uptake into GAG,"[3]; IL1 conc. 0.1 ng/ml, Misoprostol 0.1 ng/ml",1113 (119) cpm/mg
same,35SO4 uptake into GAG,"[3]; IL1 conc. 0.1 ng/ml, Misoprostol 1.0 ng/ml",1062 (71) cpm/mg
same,35SO4 uptake into GAG,"[3]; IL1 conc. 0.1 ng/ml, Misoprostol 10.0 ng/ml",1102 (165) cpm/mg
same,35SO4 uptake into GAG,"[3]; IL1 conc. 1.0 ng/ml, Misoprostol 0.1 ng/ml",183 (23) cpm/mg
same,35SO4 uptake into GAG,"[3]; IL1 conc. 1.0 ng/ml, Misoprostol 1.0 ng/ml",171 (14) cpm/mg
same,35SO4 uptake into GAG,"[3]; IL1 conc. 1.0 ng/ml, Misoprostol 10.0 ng/ml",219 (28) cpm/mg
same,35SO4 uptake into GAG,"[3]; IL1 conc. 1.0 ng/ml, Misoprostol 100.0 ng/ml",193 (26) cpm/mg
